Laboratory results published in PMC5339874, “Fluorene-9-bisphenol is anti-oestrogenic and may cause adverse pregnancy outcomes in mice” (Nature Communications, 2017).

Test system: CD-1 mice
Experiment: Subchronic and reproductive toxicity tests
Protocol: Immature CD-1 mice (20 days old) were obtained from Experimental Animal Tech Co. of Weitonglihua (Beijing, China) and acclimatized in an experimental environment with a temperature of 22 °C±2 °C, relative humidity between 40 and 60%, and artificial lighting in a 12 h/12 h light-dark cycle. The animals were fed ad libitum with a basic diet from the Laboratory Animal Center of the Academy of Military Medical Sciences (Beijing, China), and drinking water was provided ad libitum. […] The animals were housed five to a cage until the pairing date. The treatment via oral gavage of each mouse was performed once every 3 days beginning on PND 24. The chemicals were dissolved in peanut oil to the appropriate concentrations. The volume of vehicle or chemical solutions administered was adjusted daily based on body weight measured during the dosing period according to the volume-body weight ratio of 5 ml kg^−1 bw. On PND 60, 10 females of each group were weighed and killed by cervical dislocation. The uteri, ovaries, livers, kidneys and spleens were weighed and collected for histological analysis. At the age of PND 77, males and females were paired. Each morning, the females were examined for the presence of vaginal plugs. Gestational day 1 was defined as the day on which a vaginal plug was found. In cases where pairing was unsuccessful, females were re-mated with proven males of the same group, except that females in the 1.2 mg kg^−1 TAM group were re-mated with proven males of the control group. After a 7-day mating period, the males were weighed and killed, and organs were weighed and collected for further analysis. Cauda epididymal sperm was collected from each mouse and observed under a trinocular microscope (Olympus BX53) in physiological saline. A microscopic video was recorded and analysed for sperm quality evaluation. The treatment via oral gavage was continued for the females until day 19 of pregnancy. On post-partum days 0 and 4, the weights of the dams and pups were recorded and the pups were checked for abnormalities. On post-partum day 4, the dams were weighed and killed, and their organs were weighed and collected for further analysis. The ovaries and uteri were examined for the numbers of corpora lutea and implantation sites, respectively. Finally, the non-pregnant and nulliparous females were killed for histopathological analysis. For histological examination, organs and tissues were fixed in formalin fixation, embedded in paraffin, and sectioned serially at 5 μm. Slides were stained with hematoxylin and eosin (H&E), and observed under a light microscope (Olympus BX53).

Oc1ccc(C2(c3ccc(O)cc3)c3ccccc3-c3ccccc32)cc1 [BHPF, 9,9-bis(4-hydroxyphenyl)-fluorene]
Absorption sites in the uterus of dams (0.4 mg kg^−1 3-d^−1 BHPF): 0.14±0.36
Birth weight of pups (0.4 mg kg^−1 3-d^−1 BHPF): 1.66±0.21
Body weight of female pups at PND 4 (0.4 mg kg^−1 3-d^−1 BHPF): 3.08±0.57
Body weight of male pups at PND 4 (0.4 mg kg^−1 3-d^−1 BHPF): 3.30±0.56
Implantation sites in the uterus of dams (0.4 mg kg^−1 3-d^−1 BHPF): 15.21±2.02
Number of dams (0.4 mg kg^−1 3-d^−1 BHPF): 14
Number of live pups per litter (0.4 mg kg^−1 3-d^−1 BHPF): 12.71±2.55
weight gain of males from PND 30 (0.4 mg kg^−1 3-d^−1 BHPF): higher weight gain than the control
non-pregnant females (0.4 mg kg^−1 bw 3-d^−1 BHPF): 1
Absorption sites in the uterus of dams (2 mg kg^−1 3-d^−1 BHPF): 0.33±0.65
Birth weight of pups (2 mg kg^−1 3-d^−1 BHPF): 1.59±0.24
Body weight of female pups at PND 4 (2 mg kg^−1 3-d^−1 BHPF): 3.04±0.62
Body weight of male pups at PND 4 (2 mg kg^−1 3-d^−1 BHPF): 3.18±0.59
Implantation sites in the uterus of dams (2 mg kg^−1 3-d^−1 BHPF): 15.42±2.02
Number of dams (2 mg kg^−1 3-d^−1 BHPF): 12
Number of live pups per litter (2 mg kg^−1 3-d^−1 BHPF): 11.67±2.06
non-pregnant females (2 mg kg^−1 bw 3-d^−1 BHPF): 3
Absorption sites in the uterus of dams (10 mg kg^−1 3-d^−1 BHPF): 0.64±0.67
Birth weight of pups (10 mg kg^−1 3-d^−1 BHPF): 1.54±0.18
Body weight of female pups at PND 4 (10 mg kg^−1 3-d^−1 BHPF): 3.05±0.44
Implantation sites in the uterus of dams (10 mg kg^−1 3-d^−1 BHPF): 16.09±1.81
Number of dams (10 mg kg^−1 3-d^−1 BHPF): 11
Number of live pups per litter (10 mg kg^−1 3-d^−1 BHPF): 12.73±1.85
non-pregnant females (10 mg kg^−1 bw 3-d^−1 BHPF): 3
fetal death (10 mg kg^−1 bw 3-d^−1 BHPF, a pregnant female): a dead fetus in late pregnancy was observed in the uterus
Absorption sites in the uterus of dams (50 mg kg^−1 3-d^−1 BHPF): 1.09±1.38
Birth weight of pups (50 mg kg^−1 3-d^−1 BHPF): 1.64±0.16
Body weight of female pups at PND 4 (50 mg kg^−1 3-d^−1 BHPF): 3.20±0.53
Body weight of male pups at PND 4 (50 mg kg^−1 3-d^−1 BHPF): 3.21±0.51
Implantation sites in the uterus of dams (50 mg kg^−1 3-d^−1 BHPF): 14.45±2.42
Number of dams (50 mg kg^−1 3-d^−1 BHPF): 11
Number of live pups per litter (50 mg kg^−1 3-d^−1 BHPF): 10.27±2.53
late abortion (50 mg kg^−1 bw 3-d^−1 BHPF): one case of late abortion
maternal death (50 mg kg^−1 bw 3-d^−1 BHPF): one unexplained maternal death during parturition
non-pregnant females (50 mg kg^−1 bw 3-d^−1 BHPF): 2
weight gain before pairing (BHPF 0.4–50, TAM 1.2 mg kg^−1 bw 3-d^−1): no significant differences in weight gain
doses causing adverse pregnancy outcomes (CD-1 mice): ≥ 2 mg kg^−1 bw 3-d^−1
doses inducing atrophic endometria (CD-1 mice): ≥ 0.4 mg kg^−1 bw 3-d^−1
pregnancy-related weight gain (all BHPF-treated groups): significantly decreased
analysis of ovary sections (females at PND 60): retarded follicular development and reduced the numbers of corpora lutea
histopathological examination of uteri (females at PND 60, 36-day exposure): serious atrophic endometria
weights of the ovaries on both sides (females at PND 60, BHPF groups, 1.2 mg kg^−1 bw 3-d^−1 TAM): not affected
doses significantly decreasing uterine weights and inducing atrophic endometria (intact female mice, oral gavage 36 days from PND 24): ≥ 2 mg kg^−1 3-d^−1
sperm quality (males PND 84): No obvious adverse effects
pathological examination of seminal vesicle (males PND 84, TAM 1.2, BHPF 50 mg kg^−1 bw 3-d^−1 group): one case of unilateral seminal vesicle atrophy
histopathological examination of ovaries (non-pregnant females): haemorrhagic ovary cysts occurred
